Tests used:
Assay in all cases: relative viability (nuclei count vs DMSO), 5 days (fraction); higher = more cells survive
[1] = compound: C1CNCCC1C2=CC(=NN2)C3=CC=NC=C3 + CS(=O)(=O)CCNCc1ccc(-c2ccc3ncnc(Nc4ccc(OCc5cccc(F)c5)c(Cl)c4)c3c2)o1 [Lapatinib] (partner 2 µM)
Outline: (§1)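 Dosing by pin tool came one day after lung cancer cell lines were seeded in 1536-well plates, using either one drug or a fixed anchor-drug dose plus five library-drug doses (not always all listed) in √10 steps. After 5 days, nuclei were counted on 4× images. Relative viability is treated-well nuclei count divided by vehicle-well nuclei count, and values are medians of duplicate plates.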

Tanzisertib + Pictilisib = compound: O[C@H]1CC[C@H](Nc2ncc3nc(Nc4c(F)cc(F)cc4F)n([C@H]4CCOC4)c3n2)CC1 [Tanzisertib] + CS(=O)(=O)N1CCN(Cc2cc3nc(-c4cccc5[nH]ncc45)nc(N4CCOCC4)c3s2)CC1 [Pictilisib] (partner 1 µM)
Outline: as §1

[2] = compound: C1CNCCC1C2=CC(=NN2)C3=CC=NC=C3 + CS(=O)(=O)N1CCN(Cc2cc3nc(-c4cccc5[nH]ncc45)nc(N4CCOCC4)c3s2)CC1 [Pictilisib] (partner 1 µM)
Outline: as §1

Tanzisertib + Decitabine = compound: O[C@H]1CC[C@H](Nc2ncc3nc(Nc4c(F)cc(F)cc4F)n([C@H]4CCOC4)c3n2)CC1 [Tanzisertib] + Nc1ncn([C@H]2C[C@H](O)[C@@H](CO)O2)c(=O)n1 [Decitabine] (partner 2 µM)
Outline: as §1

Cell Line	relative viability ([1]; first compound 0.08 µM)	relative viability ([1]; first compound 0.8 µM)	relative viability ([1]; first compound 2.53 µM)	relative viability ([1]; first compound 8 µM)	relative viability (Tanzisertib + Pictilisib; first compound 0.08 µM)	relative viability (Tanzisertib + Pictilisib; first compound 0.253 µM)	relative viability (Tanzisertib + Pictilisib; first compound 0.8 µM)	relative viability (Tanzisertib + Pictilisib; first compound 2.53 µM)	relative viability (Tanzisertib + Pictilisib; first compound 8 µM)	relative viability ([2]; first compound 0.08 µM)	relative viability ([2]; first compound 0.8 µM)	relative viability ([2]; first compound 2.53 µM)	relative viability ([2]; first compound 8 µM)	relative viability (Tanzisertib + Decitabine; first compound 0.08 µM)	relative viability (Tanzisertib + Decitabine; first compound 0.253 µM)	relative viability (Tanzisertib + Decitabine; first compound 0.8 µM)	relative viability (Tanzisertib + Decitabine; first compound 2.53 µM)	relative viability (Tanzisertib + Decitabine; first compound 8 µM)
NCI-H1915	0.964	1.09	1.02	0.946	1.19	0.958	0.946	0.95	0.732	1.03	0.885	0.965	0.906	0.288	0.275	0.264	0.257	0.279
NCI-H1944	0.76	0.775	0.819	0.801	0.364	0.344	0.351	0.331	0.336	0.377	0.341	0.334	0.341	0.453	0.416	0.43	0.397	0.459
NCI-H1975	0.905	1.08	1.05	0.83	0.297	0.266	0.304	0.295	0.309	0.325	0.305	0.331	0.307	0.406	0.41	0.295	0.373	0.39
NCI-H1993	0.764	0.881	0.837	0.778	0.875	0.873	0.774	1.09	0.844	0.802	0.806	0.933	0.623	0.723	0.732	0.589	0.438	0.539
NCI-H2009	0.998	1.01	1.07	0.888	0.965	0.794	0.972	0.882	0.563	0.81	0.859	0.872	0.859	0.366	0.437	0.387	0.355	0.377
NCI-H2023	0.615	0.909	1.03	0.974	0.259	0.197	0.246	0.243	0.233	0.251	0.228	0.27	0.295	0.249	0.21	0.217	0.165	0.166
NCI-H2085	0.877	0.51	0.819	0.772	0.474	0.454	0.465	0.478	0.435	0.406		0.448	0.546		0.603	0.583	0.54	0.549
NCI-H2087	1.25	1.26	0.944	0.948	1.17	0.838	0.886	0.753	0.743	0.855	1.03	1.1	1.09	0.35	0.268	0.276	0.244	0.33
NCI-H2126	0.738	0.752	0.812	0.741	0.522	0.464	0.503	0.494	0.52	0.521	0.492	0.55	0.539	0.558	0.586	0.574	0.592	0.658

— the supplement of paper PMC10307832
